Among the test systems are SF-295; A549; ACHN; NCI-H522; IGROV-1; SW-620; HT-29; SF-268; NCI/ADR-RES; 786-0; OVCAR-4; UACC-62; Malme-3M; CAKI-1; KM12; T47D; NCI-H460; SK-OV-3; M14; CCRF-CEM.
Common to all, as to experiment: growth of human tumour cells (NCI), 48 h

SMILES strings stand for the structures. Several values for one entry are separate records, joined by “and”; a condition that tells them apart may be missing. Identical values can stand only once.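 Where inhibition never reached the appropriate level, the endpoint shown equals the highest concentration tested. Otherwise, values were interpolated linearly from a five-concentration, 48-hour dose response in 96-well plates. GI50 = concentration required for 50% inhibition of growth.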 Activity calls are given as the source filed them. Rule as the data show it: active = GI50 up to about 1.1 µM and inactive = higher.

`S=c1nc(N/N=C/c2cccs2)c2cn[nH]c2[nH]1`: the GI50 in the assay with SF-295 is 12.4 µM (inactive); in the assay with A549 it was 0.238 µM (active); with ACHN it was 26.8 µM (inactive); in the assay with NCI-H522 it was 27.3 µM (inactive); in the assay on IGROV-1, 20.2 µM (inactive); with SW-620, 37.1 µM (inactive). Besides, the GI50 in the assay with HT-29 was 29.5 µM (inactive); in the assay on SF-268 it was 38 µM (inactive); in the assay on NCI/ADR-RES, 27.2 µM (inactive); with 786-0, 27.9 µM (inactive); with OVCAR-4, 31.5 µM (inactive); in the assay with UACC-62, 25.4 µM (inactive). Further, the GI50 is 41.4 µM (inactive) in the assay on Malme-3M; 14.8 µM (inactive) in the assay on CAKI-1; 6.43 µM (inactive) with KM12; 23.7 µM (inactive) in the assay on T47D; 0.134 µM (active) in the assay on NCI-H460; > 100 µM (inactive) in the assay with SK-OV-3. The GI50 in the assay with M14 was 33.4 µM (inactive).

`O=C1N/C(=N/N=C\C(O)C(O)C(O)CO)N/C1=C/c1ccc(Cl)cc1` (stereo not drawn): the GI50 with SF-295 was 41.5 µM (inactive); in the assay with A549, 71.8 µM (inactive); in the assay with ACHN, 18.1 µM (inactive) and 17.8 µM (inactive); in the assay on NCI-H522 it was 22.5 µM (inactive) and 20.4 µM (inactive); with IGROV-1, 30.6 µM (inactive) and 32.9 µM (inactive); in the assay on SW-620, 60.5 µM (inactive) and 52.1 µM (inactive). In addition, the GI50 in the assay with HT-29 was 44.5 µM (inactive) and 31.8 µM (inactive); with SF-268, 27 µM (inactive) and 30.3 µM (inactive); in the assay with NCI/ADR-RES, 55.5 µM (inactive) and 44.5 µM (inactive); in the assay on 786-0 it was 53.1 µM (inactive); in the assay on OVCAR-4, 20.7 µM (inactive); in the assay on Malme-3M, 20.9 µM (inactive) and 17 µM (inactive). Further, the GI50 in the assay with CAKI-1 was 57 µM (inactive) and 47 µM (inactive); in the assay on KM12 it was 29.9 µM (inactive) and 37.2 µM (inactive); in the assay on T47D, 34.1 µM (inactive) and 21.9 µM (inactive); with NCI-H460, 33.9 µM (inactive); in the assay on CCRF-CEM, 25.8 µM (inactive) and 21.5 µM (inactive); in the assay on SK-OV-3, 63.5 µM (inactive). The GI50 in the assay with M14 was 25.9 µM (inactive).

For the compound `COc1ccc2c(c1)N=C1CSC(c3c(Cl)cccc3[N+](=O)[O-])N1C2` (stereo not drawn), the GI50 with SF-295 was 40.6 µM (inactive); in the assay with A549, 42.8 µM (inactive); with ACHN, 36.1 µM (inactive); in the assay on NCI-H522 it was 31 µM (inactive); with IGROV-1 it was 62.8 µM (inactive); with SW-620, 36.6 µM (inactive). The GI50 with HT-29 is 38.2 µM (inactive); with SF-268, 63.4 µM (inactive); in the assay with NCI/ADR-RES it was 34.5 µM (inactive); with 786-0, 51.5 µM (inactive); with OVCAR-4, 56.6 µM (inactive); with UACC-62, 22.4 µM (inactive). For the same compound, the GI50 in the assay with Malme-3M was 44.3 µM (inactive); with CAKI-1, 37.8 µM (inactive); in the assay on KM12, 33.5 µM (inactive); in the assay on T47D, 49 µM (inactive); in the assay on NCI-H460 it was 20 µM (inactive); in the assay with SK-OV-3, > 100 µM (inactive). The GI50 in the assay on M14 was 51.6 µM (inactive).

For the compound `O=c1[nH]nc(Cc2ccc([N+](=O)[O-])cc2)n1CCO`, the GI50 in the assay with SF-295, with A549, in the assay on ACHN, in the assay with NCI-H522, in the assay with IGROV-1 and with SW-620 was > 100 µM (inactive) each time. The GI50 with HT-29, in the assay on SF-268, in the assay on NCI/ADR-RES, in the assay with 786-0, with OVCAR-4 and in the assay on UACC-62 was > 100 µM (inactive) each time. Further, the GI50 in the assay on Malme-3M, in the assay with CAKI-1, in the assay on KM12, in the assay with T47D, in the assay on NCI-H460 and in the assay with SK-OV-3 was > 100 µM (inactive) throughout. For the same compound, the GI50 with M14 was > 100 µM (inactive).

As for `O=C(O)c1c(Br)c(Br)c(Br)c(Br)c1C1c2ccc(O)cc2Oc2cc(O)ccc21`, the GI50 in the assay on SF-295, in the assay with A549, in the assay with ACHN, in the assay on NCI-H522, in the assay with IGROV-1 and in the assay on SW-620 was > 100 µM (inactive) throughout. Further, the GI50 in the assay on HT-29, in the assay on SF-268, with NCI/ADR-RES, in the assay with 786-0, in the assay on OVCAR-4 and with UACC-62 was > 100 µM (inactive) throughout. Moreover, the GI50 with Malme-3M, in the assay on CAKI-1, with KM12, with T47D, in the assay on NCI-H460 and in the assay on SK-OV-3 was > 100 µM (inactive) each time. Also, in the assay with M14, the GI50 is > 100 µM (inactive).

In the case of `O=C(Nc1ccc(Cl)cc1)c1cc2c(cc1Cl)Sc1nccn1S2(=O)=O`, the GI50 in the assay on SF-295 is 29.2 µM (inactive); in the assay on A549 it was > 100 µM (inactive); with ACHN, 75.5 µM (inactive); in the assay with NCI-H522, 57.1 µM (inactive); in the assay on IGROV-1, 60.1 µM (inactive); in the assay with SW-620 it was 27.5 µM (inactive). In addition, the GI50 was > 100 µM (inactive) with HT-29; 27.5 µM (inactive) in the assay with SF-268; 56.5 µM (inactive) with NCI/ADR-RES; 29.6 µM (inactive) in the assay with 786-0; 37.3 µM (inactive) with OVCAR-4; 77.8 µM (inactive) with Malme-3M. Besides, the GI50 in the assay with CAKI-1 is 40.7 µM (inactive); with KM12, > 100 µM (inactive); with T47D it was > 100 µM (inactive); in the assay on NCI-H460 it was 42.5 µM (inactive); in the assay on CCRF-CEM, > 100 µM (inactive); with SK-OV-3 it was 64 µM (inactive). The GI50 in the assay on M14 is > 100 µM (inactive).

On to `CC(=O)N1N(c2ccc([N+](=O)[O-])cc2)C(=O)C1(C)C`, for which the GI50 is 31.4 µM (inactive) in the assay with SF-295; > 10 µM (inactive) in the assay with A549; 19.7 µM (inactive) in the assay with ACHN; 12.1 µM (inactive) with NCI-H522; 20.6 µM (inactive) with IGROV-1; 13.4 µM (inactive) with SW-620. For the same compound, the GI50 in the assay on HT-29 was 16.6 µM (inactive); in the assay with SF-268, 29.4 µM (inactive); in the assay with NCI/ADR-RES it was 30.8 µM (inactive); in the assay with 786-0 it was 18.1 µM (inactive); in the assay with OVCAR-4 it was 19.2 µM (inactive); in the assay with UACC-62 it was 18.5 µM (inactive). The GI50 in the assay on Malme-3M is 19.6 µM (inactive); in the assay with KM12, 16.7 µM (inactive); with T47D, 39.3 µM (inactive); in the assay on NCI-H460, 29.4 µM (inactive); with CCRF-CEM, 7.08 µM (inactive); in the assay with SK-OV-3, 48 µM (inactive). Besides, in the assay on M14, the GI50 was 10.8 µM (inactive).

(Values after ChEMBL document CHEMBL1201862, “PubChem BioAssay data set” (2004).)
